Assay results reported in US20250041302A1, “PROLYL HYDROXYLASE DOMAIN INHIBITOR FOR TREATING HEMORRHAGIC OR BURN SHOCK” (THE GOVERNMENT OF THE UNITED STATES, AS REPRESENTED BY THE …, priority 2022, published 2025).
Entries after “also recorded” stand apart in the source; their conditions may differ.

Tests used:
[1] = tested on: rats (polytrauma with 40% hemorrhage); assay: HOE140 on tissue wet/dry weight ratio after polytrauma with 40% hemorrhage and lactated Ringer's resuscitation (FIG. 12); assay type: in vivo; settings: for wet/dry weight ratio, brain: HOE140 0.4 mg/kg i.v. bolus 45 min after trauma, tissues 1 hour after resuscitation, vehicle 4.735±0.024
Protocol: FIG. 12. The effect of bradykinin receptor antagonist (HOE140) on tissue water content/vascular permeability in the brain, lung and skeletal muscle after polytrauma/hemorrhage and resuscitation of lactate Ringer's fluid (20% of Blood Volume). HOE140 or vehicle were given intravenously in rats (n=4/group) at 45 min after trauma (15 min prior to resuscitation of lactate Ringer's fluid). The tissues were harvested 2 hours after trauma. Values represent as means±SD. *:p<0.05 as compared with vehicle.
HOE140 (0.4 mg/kg) was administrated as a bolus intravenously at 45 min after trauma (15 min prior to Lactated Ringer's fluid resuscitation). At 1 hour after resuscitation, the rats were euthanized and the tissues were harvested for wet weight, and then transferred into the oven at 60° C. for 14 days to be weighed as dry weight. The wet/dry ratio represented the water content of the tissue.
Icatibant (HOE140), which is a selective competitive antagonist at the bradykinin type 2 (B2) receptor, is a synthetic decapeptide with a structure similar to bradykinin, but with 5 nonproteinogenic amino acids. It consists of ten amino acids in the following sequence: H-D-Arg-Arg-Pro-Hyp-Gly-Thi-Ser-D-Tic-Oic-Arg-OH. HOE140 (0.4 mg/kg in lactate Ringer's fluid) was administrated as a bolus intravenously at 45 min after trauma (15 min prior to lactated Ringer's fluid resuscitation (20% of Blood Volume)). At 1 hour after resuscitation, the rats were euthanized and the tissues were harvested for wet weight, and then transferred into the oven at 60° C. for 14 days to be weighed as dry weight. The wet/dry ratio represented the water content of the tissue.

[2] = tested on: rats with polytrauma and hemorrhage; assay: TXA in polytrauma/hemorrhage (FIG. 11); assay type: in vivo
Protocol: FIG. 11. The effect of anti-fibrinolytic agent (tranexamic acid; TXA) on polytrauma/hemorrhage. Single dose of TXA (10 mg/kg) given prior to trauma. (FIG. 11A) Prothrombin time. Values represent as means±SEM. *:p<0.05, significant difference between TXA and Vehicle; #:p<0.05, significant difference as compared with baseline. (FIG. 11B) Lung wet/dry weight ratio. TXA was given just before trauma (BT, red), just after trauma (AT, green) and 45 min after the end of trauma (yellow). Values represent as means±SEM. *:p<0.05, significant difference as compared with vehicle. (FIG. 11C) Acute lung injury. TXA given 45 min after trauma (and 15 min prior to resuscitation). Levels of platelet and leukocytes (neutrophils and monocytes) infiltration, and C5a and neutrophil elastase in the lung as compared with FWB. *:p<0.05, significant difference between FWB and FWB/TXA; #:p<0.05, significant difference as compared with Non-R; $:p<0.05, significant difference as compared with Non-R, FWB and FWB/TXA. Values represent as means±SEM. Non-R: Non-Resuscitation; FWB: Fresh Whole Blood; TXA: Tranexamic Acid; AT: After Trauma; BT: Before Trauma.
Briefly, Sprague-Dawley rats (350-450 gram) were anesthetized with isoflurane/100% oxygen through a nosecone and allowed to breathe spontaneously. Cannulas were placed in the left femoral artery and vein for measurement of arterial blood pressure and to obtain vascular access (blood draw and resuscitation and drug administration) respectively. Polytrauma was induced by laparotomy, crush injury to the small intestines, the […], and the right leg skeletal muscle and by fracture of the right femur. In detail, a midline incision was made through the abdominal skin and underlying muscle layers. A 10-cm section of small intestines was isolated just anterior to the cecum and run gently through a clamp covered with silastic tubing with a 2-mm distance between the clamps to cause a gentle crush injury. The right and medial lobes of the liver will receive three crushes to each lobe using the same clamp. The intestines and liver were replaced, and the abdominal incision was closed with sutures in two layers. To fracture the […], a modification of a 3-point impact device was used by dropping six stainless-steel balls (65 g each) stacked together, from 36 inches through a guide tube (1 inch internal diameter) to impact on a rounded aluminum blade resting on the mid-right femur with the right leg resting on two aluminum stands, one under the hip and one under the knee. A large hemostat (5 in tongs) was used to clamp the muscle of the right leg 10 times. The crush injury was intended to cause microvascular damage, as opposed to cutting, chopping, or mincing of the tissue, which would have led to uncontrolled hemorrhage. The polytrauma was performed about 10 min followed immediately by hemorrhage. Blood volume was estimated as 6% of body weight±0.77. The rats were bled to lower mean arterial pressure to 40 mmHg within 5 min and maintained at 40 mmHg until 40% of estimated blood volume is removed. Hemorrhage is usually completed within 30 min. Hemorrhage was then discontinued, and blood pressure and heart rate will be allowed to freely compensate.
TXA was given just before trauma (BT, red), just after trauma (AT, green) and 45 min after the end of trauma (yellow). […] TXA was given 45 min after trauma (15 min prior to resuscitation).

[3] = TXA 15 min prior to FWB resuscitation at 60 min after trauma
[4] = single dose TXA 10 mg/kg prior to trauma

| SMILES | tissue wet/dry weight ratio / tissue water content and vascular permeability ([1]; HOE140 0.4 mg/kg i.v.) | wet/dry weight ratio, brain ([1]; n=4) | wet/dry weight ratio, brain ([1]; n=4, 0.4 mg/kg) | tissue wet/dry weight ratio / tissue water content and vascular permeability ([1]; HOE140 0.4 mg/kg i.v., 0.4 mg/kg) | wet/dry weight ratio, traumatized skeletal muscle ([1]; HOE140 0.4 mg/kg i.v., n=4, vehicle 4.491±0.112) | wet/dry weight ratio, intestine ([1]; HOE140 0.4 mg/kg i.v., n=4, vehicle 4.528±0.112) | fluid movement into the lung (ALI, lung wet/dry weight ratio) ([2]; TXA 10 mg/kg just after trauma and 45 min after the end of trauma) | level of C5a in the lung as compared with FWB [2, 3] | level of neutrophil elastase in the lung as compared with FWB [2, 3] | platelet and leukocyte infiltration in the lung as compared with FWB [2, 3] | circulatory plasmin activity ([2]; current study) | prothrombin time (PT) at 30 min after trauma [2, 4] | prothrombin time (PT) at 120 min after trauma [2, 4] |
| --- | --- | --- | --- | --- | --- | --- | --- | --- | --- | --- | --- | --- | --- |
| NC(N)=NCCC[C@@H](N)C(=O)N[C@@H](CCCN=C(N)N)C(=O)N1CCC[C@H]1C(=O)N1C[C@H](O)C[C@H]1C(=O)NCC(=O)N[C@@H](Cc1cccs1)C(=O)N[C@@H](CO)C(=O)N1Cc2ccccc2C[C@@H]1C(=O)N1[C@H](C(=O)N[C@@H](CCCN=C(N)N)C(=O)O)C[C@@H]2CCCC[C@@H]21 [Icatibant, H-D-Arg-Arg-Pro-Hyp-Gly-Thi-Ser-D-Tic-Oic-Arg-OH] | attenuated tissue wet/dry weight ratio | 4.674±0.023 | significantly declined | attenuated tissue wet/dry weight ratio; also recorded: reduced | 4.247±0.176 | 4.399±0.090 | – | – | – | – | – | – | – |
| NC[C@H]1CC[C@H](C(=O)O)CC1 [TXA, tranexamic acid] | – | – | – | – | – | – | reduces fluid movement into the lung | significantly reduced | significantly reduced | significantly reduced | not significantly changed | delayed elevation of prothrombin time | significantly elevated |
